{
  "source": "patent US20260200882A1",
  "about": "“NOVEL FIVE-MEMBERED HETEROCYCLE SUBSTITUTED STYRENE DERIVATIVE, AND PREPARATION METHOD THEREFOR AND USE THEREOF” (Guangzhou Nanocrystal Biotechnology Co., Ltd., priority 2022, published 2026)",
  "key": {"[1]": {"system": "Mouse macrophages (RAW264.7)", "assay": "Toxicity to macrophages by MTT method", "type": "cell-based", "conditions": "RAW264.7, MTT, 48 h culture with compound", "protocol": "(1) the Toxicity to Macrophages was Tested by MTT Method:\nMouse macrophages (RAW264.7) were taken, inoculated into 96-well plates ([…]) at a concentration of 3×10^4/mL and cultured in an incubator of 5% CO2 at 37° C. for 18 h. After the cells adhered to the wall, the supernate was discarded and compounds of different concentrations were added to continue the culture for 48 h. 0.5 mg/mL of MTT was added. After continued culture for 4 h, […] of DMSO was added to each well, and then shaken on a shaker for 10 min. Absorbance (OD value) at 570 nm was measured by a microplate reader, and IC50 was calculated by Prism software."}, "[2]": {"system": "LPS-induced NO production in macrophages (RAW264.7)", "assay": "Inhibition of LPS-induced NO production in macrophages", "type": "cell-based, mouse", "parameters": "dose or concentration left out as unconfirmed", "conditions": "LPS-induced RAW264.7, 24 h", "protocol": "In this test example, the styrene derivatives prepared by embodiments 2-20 were tested for their toxicities to mouse macrophages (RAW264.7). The nitric oxide (NO) inhibition assays using lipopolysaccharide (LPS)-induced RAW264.7 cells were also performed to evaluate their anti-inflammatory activities (Test methods refer to Zhou W. et al. Biomed Pharmacother 2020, 131:110696.).\n(2) Inhibition of LPS-Induced NO Production Activity in Macrophages was Tested (the Test Method Refers to Biomed Pharmacother. 2020 November; 131:110696):\nMouse macrophages (RAW264.7) were taken, inoculated into 96-well plates ([…]) at a concentration of 5×10^5/mL and cultured in a 5% CO2 incubator at 37° C. for 18 h. Then, the compound (final concentration: […]) and LPS (final concentration: 5 µg/mL) were added into a cell culture solution and cultured at 37° C. for 24 h. Then, the supernatant of the cell culture solution was taken and placed into a new 96-well plate by 50 µL per well; and then 50 µL of solution A and 50 µL of solution B of a Beyotime NO kit were added.\nAfter culturing in the incubator at 37° C. for 10 min, the absorbance (OD value) at 540 nm was tested."}},
  "data": [
    {"smiles": "Oc1cc(/C=C/c2ccsc2)cc(O)c1C1=CCCC1", "note": "[No 7]", "values": [
      {"measurement": "IC50", "setting": "[1]; Mus musculus", "value": "> 1000", "unit": "nM"},
      {"measurement": "Inhibitory activity against nitric oxide production (%)", "setting": "[2]", "value": "<50", "unit": "%"}
    ]},
    {"smiles": "COc1cc(/C=C/c2ccoc2)cc(O)c1C(C)C", "note": "[No 20]", "values": [
      {"measurement": "IC50", "setting": "[1]", "value": "> 1000", "unit": "nM"},
      {"measurement": "Inhibitory activity against nitric oxide production (%)", "setting": "[2]", "value": ">50", "unit": "%"}
    ]},
    {"smiles": "C=C(C)c1c(O)cc(/C=C/c2cncs2)cc1O", "note": "[No 17]", "values": [
      {"measurement": "IC50", "setting": "[1]; Mus musculus", "value": "> 1000", "unit": "nM"},
      {"measurement": "Inhibitory activity against nitric oxide production (%)", "setting": "[2]", "value": "<50", "unit": "%"}
    ]},
    {"smiles": "Oc1cc(/C=C/c2cncs2)cc(O)c1C1=CCCC1", "note": "[No 10]", "values": [
      {"measurement": "IC50", "setting": "[1]", "value": "> 1000", "unit": "nM"},
      {"measurement": "Inhibitory activity against nitric oxide production (%)", "setting": "[2]", "value": "<50", "unit": "%"}
    ]},
    {"smiles": "Oc1cc(/C=C/c2ccoc2)cc(O)c1C1CC1", "note": "[No 6]", "values": [
      {"measurement": "IC50", "setting": "[1]; Mus musculus", "value": "> 1000", "unit": "nM"},
      {"measurement": "Inhibitory activity against nitric oxide production (%)", "setting": "[2]", "value": "<50", "unit": "%"}
    ]},
    {"smiles": "COc1cc(/C=C/c2ccsc2)cc(O)c1C1CC1", "note": "[No 18]", "values": [
      {"measurement": "IC50", "setting": "[1]; Mus musculus", "value": "> 1000", "unit": "nM"},
      {"measurement": "Inhibitory activity against nitric oxide production (%)", "setting": "[2]", "value": ">50", "unit": "%"}
    ]},
    {"smiles": "Oc1cc(/C=C/c2ccsc2)cc(O)c1C1CC1", "note": "[No 5]", "values": [
      {"measurement": "IC50", "setting": "[1]; Mus musculus", "value": "> 1000", "unit": "nM"},
      {"measurement": "Inhibitory activity against nitric oxide production (%)", "setting": "[2]", "value": "<50", "unit": "%"}
    ]},
    {"smiles": "CC(C)c1c(O)cc(/C=C/c2cncs2)cc1O", "note": "[No 3]", "values": [
      {"measurement": "IC50", "setting": "[1]; Mus musculus", "value": "> 1000", "unit": "nM"},
      {"measurement": "Inhibitory activity against nitric oxide production (%)", "setting": "[2]", "value": ">50", "unit": "%"}
    ]},
    {"smiles": "CC(C)c1c(O)cc(/C=C/c2cscn2)cc1O", "note": "[No 4]", "values": [
      {"measurement": "IC50", "setting": "[1]; Mus musculus", "value": "> 1000", "unit": "nM"},
      {"measurement": "Inhibitory activity against nitric oxide production (%)", "setting": "[2]", "value": "<50", "unit": "%"}
    ]},
    {"smiles": "Oc1cc(/C=C/c2cscn2)cc(O)c1C1CCCC1", "note": "[No 12]", "values": [
      {"measurement": "IC50", "setting": "[1]; Mus musculus", "value": "> 1000", "unit": "nM"},
      {"measurement": "Inhibitory activity against nitric oxide production (%)", "setting": "[2]", "value": "<50", "unit": "%"}
    ]},
    {"smiles": "COc1cc(/C=C/c2ccsc2)cc(O)c1Br", "note": "[No 19]", "values": [
      {"measurement": "IC50", "setting": "[1]; Mus musculus", "value": "> 1000", "unit": "nM"},
      {"measurement": "Inhibitory activity against nitric oxide production (%)", "setting": "[2]", "value": ">50", "unit": "%"}
    ]},
    {"smiles": "CC(C)c1c(O)cc(/C=C/c2ccoc2)cc1O", "note": "[No 2]", "values": [
      {"measurement": "IC50", "setting": "[1]; Mus musculus", "value": "> 1000", "unit": "nM"},
      {"measurement": "Inhibitory activity against nitric oxide production (%)", "setting": "[2]", "value": "<50", "unit": "%"}
    ]},
    {"smiles": "Oc1cc(/C=C/c2ccsc2)cc(O)c1C1CCCC1", "note": "[No 11]", "values": [
      {"measurement": "IC50", "setting": "[1]; Mus musculus", "value": "> 1000", "unit": "nM"},
      {"measurement": "Inhibitory activity against nitric oxide production (%)", "setting": "[2]", "value": "<50", "unit": "%"}
    ]},
    {"smiles": "Oc1cc(/C=C/c2ccoc2)cc(O)c1Br", "note": "[No 13]", "values": [
      {"measurement": "IC50", "setting": "[1]; Mus musculus", "value": "> 1000", "unit": "nM"},
      {"measurement": "Inhibitory activity against nitric oxide production (%)", "setting": "[2]", "value": "<50", "unit": "%"}
    ]},
    {"smiles": "C=C(C)c1c(O)cc(/C=C/c2cscn2)cc1O", "note": "[No 16]", "values": [
      {"measurement": "IC50", "setting": "[1]; Mus musculus", "value": "> 1000", "unit": "nM"},
      {"measurement": "Inhibitory activity against nitric oxide production (%)", "setting": "[2]", "value": "<50", "unit": "%"}
    ]},
    {"smiles": "Oc1cc(/C=C/c2cscn2)cc(O)c1C1=CCCC1", "note": "[No 9]", "values": [
      {"measurement": "IC50", "setting": "[1]", "value": "> 1000", "unit": "nM"},
      {"measurement": "Inhibitory activity against nitric oxide production (%)", "setting": "[2]", "value": "<50", "unit": "%"}
    ]}
  ]
}
